{
  "source": "patent US20160279135A1",
  "about": "“THERAPIES FOR TREATING MYELOPROLIFERATIVE DISORDERS” (Gilead Sciences, Inc., priority 2013, published 2016)",
  "key": {"pS6 Ser235/236 [1]": {"system": "pS6 Ser235/236", "assay": "Western blot of S6 phosphorylation in BaF3/MPL cells", "type": "cell-based", "details": "2 h, then TPO 50 ng/mL 10 min, vs vehicle", "description": "(§1) In addition, Compound B was examined for the effects on the PI3K signaling pathway by determining the levels of AKT and S6 phosphorylation with or without TPO activation. Two cell lines, BaF3/MPL and UT-7/TPO sensitive or responsive to TPO activation were used. The cells were starved (i.e. growing on medium having less FBS) in […] FBS/RPMI for two hours before treated with 0.1, 1.0, or 2.0 μM of Compound B or vehicle (0.1% DMSO in RPMI) for 2 hours at 37° C. To examine the TPO-activated phosphorylation, the cells were then treated or activated with 50 ng/mL of human recombinant TPO (Peprotech) for 10 minutes at 37° C. The TPO activation or treatment may reflect the conditions in diseased cells as the PI3K pathway is activated by TPO in myelofibrosis. After treating with compound and/or TPO, the cells were collected, lysed by lysis buffer (Cell Signaling), separated by SDS-PAGE, and analyzed by the Western blot using antibodies specific to p-AKT Ser473 or pS6 Ser235/236 (Cell Signaling). The phosphorylation levels in treated cells were calculated and compared to those of untreated cells (i.e. vehicle as negative control)."}, "pS6 Ser235/236 [2]": {"system": "pS6 Ser235/236", "assay": "Western blot of S6 phosphorylation in UT-7/TPO cells", "type": "cell-based", "details": "2 h, then TPO 50 ng/mL 10 min, vs vehicle", "description": "as §1"}, "clinical": {"assay": "clinical", "details": "human, in vivo", "description": "For in vitro or in vivo studies, the effect amount of Compounds A, B, C, D, E, or ruxolinitib may be adjusted according to the experimental condition. Similarly, the effect amount of Compounds D1, D2, D3, D4, D5, D6, D7, D8, D9, E1, E2, E3, E4, E5, E6, E7, E8, E9, or F, may be adjusted according to the experimental condition for in vitro or in vivo studies. For example, compounds may be used in the amount of 0.001, 0.002, 0.003, 0.004, 0.005, 0.006, 0.007, 0.008, 0.009, 0.01, 0.02, 0.03, 0.04, 0.05, 0.06, 0.07, 0.08, 0.09, 0.1, 0.2, 0.3, 0.4, 0.5, 0.6, 0.7, 0.8, 0.9, 1.0, 1.5, 2.0, 2.5, 3.0, 3.5, 4.0, 5.0, 6.0, 7.0, 8.0, 9.0, or 10.0 μM. In some studies, the in vitro doses of the compounds may be calculated to correspond to the clinical doses of the compounds. The calculation may consider various factors, such as protein binding and plasma concentration. […] It is understood that the in vitro doses may differ, depend on the assay condition and other calculation factors, and that the clinical doses may differ depend on the disease indication and the patient condition.\n(§2) In this study, PBMCs were isolated from the whole blood from five MF patients receiving chronic ruxolitinib treatment (rux 1-rux 5). The cells were treated with either vehicle, ruxolitinib, and/or Compound B for 2 hours then stimulated with TPO (50 ng/mL) for 10 minutes. Ruxolitinib at the dose of 1 or 20 nM and Compound B at the dose of 45, 200, or 700 nM were used.\nNext, Pfeiffer cells were treated with IL6 (0 or 3 ng/mL), Compound A (0, 136, 272, or 695 nM), and/or Compound B (0, 74, 200, or 421 nM) (n=4 per group) for 96 hours. The doses in this assay may correspond to those used in a clinical setting. […] In addition, the in-vitro dose of 136 nM Compound A may correspond to the potential Caverage detected in patients receiving Compound A at 300 mg once a day."}, "p-AKT Ser473": {"system": "p-AKT Ser473", "assay": "flow cytometry of AKT phosphorylation in CD34+ progenitor cells from MF patients", "type": "cell-based, human", "details": "2.0 μM", "description": "(§3) In this example, PBMCs were isolated from whole blood of myelofibrosis (MF) patients who had not received treatments (i.e. naïve patients) or received ruxolitinib (i.e. rux-treated patients). The cells were treated with 0.02, 0.2, or 2.0 μM of Compound B or vehicle (0.1% DMSO in 0.1% FBS/RPMI) for 2 hours at 37° C. The cells were then fixed, permeabilized, and stained for FACS analysis. Antibodies specific to p-AKT Ser473 and pS6RP Ser235/236 were used to detect AKT phosphorylation (p-AKT) and S6RP phosphorylation (p-S6RP) in CD34^+/CD3^−/CD14^−/CD19/CD66^− (BD Biosciences) gated cells using flow cytometry. The percentage of basal (i.e. untreated with TPO) AKT and S6RP phosphorylation were normalized to vehicle control (i.e. “no TPO” values shown in Table 2). A two-tailed paired t-test (GraphPad Prism) was used to calculate p-values. Values of p<0.05 were considered significant.\n(§4) Also, PBMC cells were treated with Compound B and with TPO as described above. The percentage of TPO-activated AKT and S6RP phosphorylation were normalized to those of TPO-treated vehicle. […] Also, the inhibition to PI3K signaling was dose-dependent to Compound B.\n(§5) Similar studies were conducted with PI3K inhibitors Compounds C and D. PBMC from MF patients had received ruxolitinib (rux) and MF patient had received Compound A. The cells were treated with Compounds C or D at 0, 20.0, 200.0, 2000.0 nM for 2 hours at 37° C. Cells were treated with TPO for 10 minutes. The percentage of basal p-AKT and p-S6RP levels were normalized to vehicle control and those of TPO-treated were normalized to TPO-treated vehicle control. The PI3K inhibitors Compounds C and D had the chemical names of (S)-2-(1-((9H-purin-6-yl)amino)ethyl)-6-fluoro-3-phenylquinazolin-4(3H)-one and (S)-2,4-diamino-6-(((5-chloro-8-fluoro-4-oxo-3-(pyridine-3-yl)-3,4-dihydroquinazolin-2-yl)(cyclopropyl)methyl)amino)pyrimidine-5-carbonitrile, respectively."}, "p-S6RP": {"system": "p-S6RP", "assay": "flow cytometry of p-S6RP in TPO-stimulated CD34+ cells from MF patients on chronic ruxolitinib (Example 8)", "type": "cell-based, human", "details": "for percentage of the p-S6RP levels: 2 h, then TPO 50 ng/mL, one value per patient, TPO vehicle = 100", "description": "as §2\nThe treated cells were then fixed, permeabilized and stained for FACS analysis using FACSCalibur analyzed using BD FACSDiva software."}, "pS6RP Ser235/236": {"system": "pS6RP Ser235/236", "assay": "flow cytometry of S6RP phosphorylation in CD34+ progenitor cells from MF patients", "type": "cell-based, human", "details": "for normalized percentage of TPO-activated S6RP phosphorylation (p-S6RP): 2.0 μM, then TPO, one value per patient, TPO-treated vehicle = 100", "description": "as §3, §4, §5"}},
  "note": "Values joined by “and” are separate entries in the source; they are usually repeats but may differ in a detail not shown here. Equal values may be shown once.",
  "data": [
    {"smiles": "CC[C@H](Nc1ncnc2[nH]cnc12)c1nc2cccc(F)c2c(=O)n1-c1ccccc1", "note": "[Compound B, (S)-2-(1-((9H-purin-6-yl)amino)propyl)-5-fluoro-3-phenylquinazolin-4(3H)-one]", "values": [
      {"measurement": "reduced p-S6 levels", "setting": "pS6 Ser235/236 [1]; 0.1 μM", "result": 24, "unit": "%"},
      {"measurement": "reduced p-S6 levels", "setting": "pS6 Ser235/236 [1]; 1.0 μM", "result": 27, "unit": "%"},
      {"measurement": "reduced p-S6 levels", "setting": "pS6 Ser235/236 [1]; 2.0 μM", "result": 41, "unit": "%"},
      {"measurement": "reduced p-S6 levels", "setting": "pS6 Ser235/236 [2]; 0.1 μM", "result": 13, "unit": "%"},
      {"measurement": "reduced p-S6 levels", "setting": "pS6 Ser235/236 [2]; 1.0 μM", "result": 28, "unit": "%"},
      {"measurement": "reduced p-S6 levels", "setting": "pS6 Ser235/236 [2]; 2.0 μM", "result": 48, "unit": "%"},
      {"measurement": "in-vitro dose corresponding to the potential Caverage", "setting": "clinical", "result": 200, "unit": "nM"},
      {"measurement": "in-vitro dose corresponding to the potential Cmin", "setting": "clinical", "result": 74, "unit": "nM"},
      {"measurement": "Cmax", "setting": "clinical; 150 mg", "result": 421, "unit": "nM"},
      {"measurement": "normalized percentage of TPO-activated AKT phosphorylation (p-AKT)", "setting": "p-AKT Ser473; then TPO, progenitor cells of rux-treated MF patients, one value per patient, TPO-treated vehicle = 100", "result": "40% and 29% and 35% and 16% (2×)"},
      {"measurement": "normalized percentage of p-AKT", "setting": "p-AKT Ser473; progenitor cells from Compound A-treated MF patients, one value per subject, column 0 = 100", "result": "24% and 55% and 30%"},
      {"measurement": "percentage of the p-S6RP levels", "setting": "p-S6RP; Compound B 45 nM", "result": "82% and 58% and 49% and 74% and 36%"},
      {"measurement": "percentage of the p-S6RP levels", "setting": "p-S6RP; Compound B 200 nM", "result": "62% and 46% and 38% and 63% and 33%"},
      {"measurement": "percentage of the p-S6RP levels", "setting": "p-S6RP; Compound B 700 nM", "result": "46% and 48% and 32% and 55% and 17%"},
      {"measurement": "inhibition at 0.045 µM", "setting": "p-S6RP; Homo sapiens, Compound B 45 nM, TPO-stimulated cells vs vehicle, all five patients, read-out: p-S6RP levels decreased (inhibited) by", "result": 40, "unit": "%"},
      {"measurement": "inhibition at 0.2 µM", "setting": "p-S6RP; Homo sapiens, Compound B 200 nM, TPO-stimulated cells vs vehicle, all five patients, read-out: p-S6RP levels decreased (inhibited) by", "result": 52, "unit": "%"},
      {"measurement": "inhibition at 0.7 µM", "setting": "p-S6RP; Homo sapiens, Compound B 700 nM, TPO-stimulated cells vs vehicle, all five patients, read-out: p-S6RP levels decreased (inhibited) by", "result": 60, "unit": "%"},
      {"measurement": "normalized percentage of TPO-activated S6RP phosphorylation (p-S6RP)", "setting": "pS6RP Ser235/236; progenitor cells of naïve MF patients", "result": "23% and 45%"},
      {"measurement": "normalized percentage of TPO-activated S6RP phosphorylation (p-S6RP)", "setting": "pS6RP Ser235/236; progenitor cells of rux-treated MF patients", "result": "21% and 45% and 36% and 20% and 31%"},
      {"measurement": "basal p-S6RP levels", "setting": "pS6RP Ser235/236; 0.02-2.0 μM, 2 h, no TPO, MF progenitor cells vs untreated, data not shown", "result": "reduced levels"}
    ]}
  ]
}
